These results are taken from patent US10137210B2, “Thioflavin derivatives for use in antemortem diagnosis of Alzheimer's disease and in vivo imaging and prevention of amyloid deposition” (UNIVERSITY OF PITTSBURGH—OF THE COMMONWEALTH SYSTEM OF …, priority 2000, dated 2018).

“Also recorded” adds a separate entry of the source. Where two headings read alike, the source gives them in different places.

The logP is a log measure of how a compound divides between an organic and an aqueous phase. A low value points to lower lipophilicity. The Ki is a dissociation constant, usually derived from enzyme kinetics or from competition with a known ligand.

A short description of data set [1]: In vivo brain uptake and retention in mice. To be noted: for Mouse Brain Uptake @ 2 min / Mouse Brain Uptake @ 30 min: 11C-labeled compound; for 2 min (% ID/g): brain uptake at 2 min; for 2 min (% ID/g) / 30 min (% ID/g): Table 1 lower part; for 30 min (% ID/g): brain uptake at 30 min. Details: species or system mouse. An excerpt: In Table 1 below are five different ^11C-labeled BTA derivatives where their in vitro binding properties, log P values, and in vivo brain uptake and retention properties in mice have been determined.

A short description of data set [2]: Partitioning between octanol and phosphate-buffered saline (logP).
The target in a further data set is Aβ(1-40) fibrils (Homo sapiens (Human), UniProt P05067). Kind of data set: [N-methyl-11C]BTA-1 binding assay with Aβ(1-40) fibrils.
Data set [3] relates to plaques and tangles in post-mortem AD brain. Kind of data set: Preliminary tissue staining of post-mortem AD brain with ThT and derivatives. It counts as binding, human. As to conditions: for staining of plaques and tangles in AD brain: post-mortem AD brain, fluorescence; for staining detectable at low concentration of staining solution: staining solutions containing only 10 nM of the BTA compound. From the text:
Thus, in the development of these compounds, tissue staining has served the dual purpose of assessing specificity of staining in AD brain tissue as well as assessing binding affinity by screening staining solutions over a range of concentrations similar to that employed in the binding assays.

Data set [4] addresses amyloid deposits in PS1/APP mouse brain (Homo sapiens (Human), UniProt P05067). Kind of data set: Staining of transgenic PS1/APP mouse brain sections with unlabeled BTA-1. The format is binding. An excerpt: The PS1/APP mouse model combines two human gene mutations known to cause Alzheimer's disease in a doubly transgenic mouse which deposits Aβ fibrils in amyloid plaques in the brain beginning as early as 3 months of age. […] NFT have not been observed in transgenic mouse models of amyloid deposition.

The target in data set [5] is Aβ amyloid plaques and cerebrovascular amyloid (Homo sapiens (Human), UniProt P05067). Kind of data set: In vivo labeling of amyloid deposits in PS1/APP transgenic mice, multiphoton microscopy. Details: species or system mouse. As to conditions: 10 mg/kg ip, imaged 24 hours later, living PS1/APP mice. From the text: Twenty-four hours later, multiphoton fluorescence microscopy was employed to obtain high resolution images in the brains of living mice using a cranial window technique.

Data set [6] concerns amyloid deposits in postmortem AD brain. Kind of data set: Staining of postmortem AD brain tissue sections with unlabeled BTA-1. It counts as binding, human.
Data set [7] deals with Aβ and tau deposits in brain homogenates. Kind of data set: [3H]BTA-1 binding to brain homogenates (AD brain and Braak stage II control brain). Details: species or system human. From the text:
This control brain had frequent numbers of NFT in the entorhinal cortex (FIG. 5A), but no neuritic or diffuse plaques in any area of the brain (FIG. 11C). The NFT numbers in the EC of Cntl 04 were similar to the numbers found in many AD cases (FIG. 11B).

Data set [8] in a line: In vivo PET brain imaging in baboons. As to conditions: normal baboon brain, 5-15 min post injection, 3 mCi i.v. The protocol: Brain imaging studies were conducted following the intravenous injection of 3-5 mCi of radiotracer. Typical attenuation- and decay-corrected time-activity curves for a frontal cortex region of interest for each of the three compounds are shown in FIG. 6. It is noted that the absolute brain uptake of these 3 compounds in baboons is very similar to that in mice (i.e., about 0.47 to 0.39%ID/g*kg). […] The rank order of maximum brain uptake and clearance rate of the three compounds were also the same in mice and baboons. […] Typical amounts of unmetabolized injectate in plasma for all three compounds were about: 90% at 2 minutes; 35% at 30 minutes; and 20% at 60 minutes.
The emission files collected 5-15 min post injection were summed to provide the images. Brain regions include: Ctx (cortex); Thl (thalamus); Occ (occipital cortex); and Cer (cerebellum).

Another data set concerns the target synthetic Aβ(1-40) (Homo sapiens (Human), UniProt P05067). Kind of data set: Competitive binding with [3H]CG and synthetic Aβ(1-40).
Where [9] appears, read: Table 1, upper part, read-out: Ki (nM) to Aβ fibrils.
The mark [10] stands for this setting: Table 1, lower part, read-out: Ki.
The mark [11] stands for this setting: competition for Aβ sites, FIG. 5 right panel, read-out: Ki.

Chain of Aβ(1-40) fibrils (P05067 672-711): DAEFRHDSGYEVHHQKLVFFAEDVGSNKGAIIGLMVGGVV
Chain of synthetic Aβ(1-40) (P05067 672-711): as above
Chain of amyloid deposits in PS1/APP mouse brain (P05067 672-713): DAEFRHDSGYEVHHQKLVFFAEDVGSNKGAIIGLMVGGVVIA
Chain of Aβ amyloid plaques and cerebrovascular amyloid (P05067 672-713): as above

Take `Cc1ccc2nc(-c3ccc(N[11CH3])cc3)sc2c1`: in data set [1], the “Mouse Brain Uptake @ 2 min” value came to 0.32 ± 0.07 % ID/g * kg and the “Mouse Brain Uptake @ 30 min” value came to 0.17 ± 0.05 % ID/g * kg. Besides, the logP in [2] was 3.3.
Consider `Cc1ccc2nc(-c3ccc(N(C)[11CH3])cc3)sc2c1`, for which, in the data set “physchem”, the logP was found to be 3.9. Moreover, in [1], the “Mouse Brain Uptake @ 2 min” value worked out at 0.15 ± 0.06 % ID/g * kg and the “Mouse Brain Uptake @ 30 min” value is recorded as 0.16 ± 0.02 % ID/g * kg. In data set [1] (mouse brain), the “Ratio of 2 min/30 min Uptake Values” stood at 0.9.
Take `COc1ccc2nc(-c3ccc(N[11CH3])cc3)sc2c1`: the Ki on Aβ(1-40) fibrils (setting [9]) amounted to 5.7 nM. Also, in “physchem”, the logP was 2.7. Besides, in data set [1], the “Mouse Brain Uptake @ 2 min” value turned out to be 0.43 ± 0.11 % ID/g * kg and the “Mouse Brain Uptake @ 30 min” value turned out to be 0.094 ± 0.038 % ID/g * kg. Also, the “Ratio of 2 min/30 min Uptake Values” in data set [1] (mouse brain) is given as 4.6.
Taken in the same sequence, the figures for `COc1ccc2nc(-c3ccc(N(C)[11CH3])cc3)sc2c1` were 2.3 nM, 3.3, 0.32 ± 0.09 % ID/g * kg, 0.42 ± 0.10 % ID/g * kg and 0.8.
Take `[11CH3]Nc1ccc(-c2nc3ccccc3s2)cc1`: in “physchem”, the logP is 2.7. In addition, in data set [1], the “Mouse Brain Uptake @ 2 min” value was 0.44 ± 0.14 % ID/g * kg and the “Mouse Brain Uptake @ 30 min” value is given as 0.057 ± 0.010 % ID/g * kg.
Consider `Nc1ccc(-c2nc3ccccc3s2)cc1[125I]`, for which, on Aβ(1-40) fibrils (setting [10]), the Ki was found to be 8.32 nM. In the data set “physchem”, this molecule registered a logP of 3.17. In [1] (Table 1, lower part), the “2:30 min ratio” value worked out at 2.7. Also, in [1], the “2 min (% ID/g)” value stood at 9.08 % ID/g and the “30 min (% ID/g)” value came to 3.4 % ID/g.
Take `Nc1ccc(-c2nc3ccc(O)cc3s2)cc1[125I]`: the Ki at Aβ(1-40) fibrils (setting [10]) amounted to 11.1 nM. The logP in “physchem” came out at 1.65. In [1], the “2 min (% ID/g)” value stood at 5.64 % ID/g and the “30 min (% ID/g)” value was 0.36 % ID/g.
Turning to `Cc1ccc2nc(-c3ccc(N)cc3)sc2c1` [6-Me-BTA-0, 2-(4′-aminophenyl)-6-methyl-benzothiazole], in data set [3], the “staining of plaques and tangles in AD brain” value (shortened to “staining … in AD brain”) was “stain plaques and tangles”; the “staining detectable at low concentration of staining solution” value is given as “could still be detected”.
Regarding `CNc1ccc(-c2nc3ccc(C)cc3s2)cc1` [6-Me-BTA-1], the “staining detectable at low concentration of staining solution” value in [3] was “could still be detected”.
For `Cc1ccc2nc(-c3ccc(N(C)C)cc3)sc2c1` [6-Me-BTA-2, 2-(4′-dimethylaminophenyl)-6-methyl-benzothiazole], the “staining … in AD brain” value in data set [3] was “stain plaques and tangles”.
On to `COc1ccc2nc(-c3ccc(N)cc3)sc2c1` [6-MeO-BTA-0, 6-Methoxy-2-(4-aminophenyl)benzothiazole], for which the brain clearance result in data set [1] (mouse brain) is reported as “poor brain clearance”.
For `Nc1ccc(-c2nc3ccccc3s2)cc1` [BTA-0, 2-(4-Aminophenyl)benzothiazole], the Ki at Aβ(1-40) fibrils (setting [11]) was found to be 100 ± 16 nM.
For `CNc1ccc(-c2nc3ccccc3s2)cc1` [BTA-1, 2-(4-Methylaminophenyl)benzothiazole], the specific binding at Aβ(1-40) fibrils (200 nM Aβ(1-40) fibrils) is recorded as roughly 70%. In addition, the “staining of amyloid plaques” value in data set [4] (8 month old PS1/APP mouse brain tissue) is listed as “clearly visible”. For the same molecule, the “staining of cerebrovascular amyloid” value in data set [4] (FIG. 8, right) is “brightly stained”. The “in vivo labeling of plaques and cerebrovascular amyloid” value in [5] was “plaques and cerebrovascular amyloid are clearly distinguishable”. Moreover, the “staining of neurofibrillary tangles (NFT)” value in data set [6] (AD brain, FIG. 8, left) is reported as “more faintly stained”. Further, the “staining of amyloid plaques” value in [6] (postmortem AD brain tissue) is “clearly visible”. Besides, in [7] (Braak VI AD brain), the “binding in cerebellum and entorhinal cortex” value is listed as “low binding”; the “binding in frontal gray versus cerebellum and entorhinal cortex” value is recorded as “over ten-fold higher levels”. Also, the “binding in NFT-rich entorhinal cortex versus cerebellum and frontal gray” value in [7] (Braak stage II control brain (Cntl 04)) was “no greater than”. The “distribution of radioactivity in brain (PET)” value in [8] is reported as “uniform distribution of radioactivity throughout the brain”.
Consider `CN(C)c1ccc(-c2nc3ccccc3s2)cc1` [BTA-2, 2-(4-dimethylaminophenyl)benzothiazole], for which the Ki on Aβ(1-40) fibrils (setting [11]) is 3 ± 0.8 nM.
Take `c1ccc(-c2nc3ccccc3s2)cc1` [BTP, 2-phenylbenzothiazole, reference compound]: the “staining … in AD brain” value in data set [3] was “does not appear to stain plaques”.
In the case of `Cc1ccc2c(c1)sc(-c1ccc(N(C)C)cc1)[n+]2C.[Cl-]` [ThT, Thioflavin T, reference compound], the “competition with [3H]CG for binding sites on Aβ(1-40)” value on synthetic Aβ(1-40) is given as “lack of competition; also recorded: did not”. In addition, the “log of the partition coefficient, logPoct” value in data set [2] (octanol / phosphate-buffered saline) worked out at 0.57. Besides, the “staining … in AD brain” value in [3] is on record as “weakly stains plaques”.
For Thioflavin S [ThS], the “competition with [3H]CG for binding sites on Aβ(1-40)” value on synthetic Aβ(1-40) is “competed”.
